From US20070213354A1, “Compositions and Methods for the Treatment of Multiple Sclerosis” (AmpliMed Corporation, priority 2006, published 2007)

Experiments:
acute monophasic EAE [1] = test: Acute monophasic EAE, drug administration beginning with immunization; assay type: in vivo, C57/BL6 mice; conditions: for Day of Onset / Incidence / Mean Clinical Score: 30 day observation; for Max. Clinical Score: scale 0 to 5
Text: (§1) An acute monophasic form of EAE, induced by the administration of MOG, mimics the progressive clinical patterns of MS seen in human patients and can provide an opportunity to investigate a therapy's ability to prevent progression to symptomatic disease, to prevent or reduce the disability that would otherwise be caused by disease progression, or to treat one or more clinical symptoms of MS. The induction of the acute monophasic form of EAE in C57/BL6 mice can be achieved as described in Gaupp et al., Am J Pathol. 162(1): 139-150 (2003). Similarly, a relapsing-remitting form of EAE, induced by the administration of PLP, mimics the more common relapsing-remitting form of MS seen in humans and can provide an opportunity to investigate potential therapies to reduce the frequency, severity, or duration of a disease relapse, to otherwise prevent disability caused by disease progression, or to relieve one or more clinical symptoms of MS in human patients. The induction of the relapsing-remitting form of EAE in SJL/J mice can be achieved as described in Fridkis-Hareli et al., J Clin Invest. 109(12): 1635-1643 (2002).
(§2) Acute monophasic EAE was induced in C57/BL6 mice by subcutaneous flank and tail base injections of 200 μg of MOG in complete Freund's adjuvent containing 500 μg of heat-inactivated mycobacterium tuberculosis on day 0, supplemented by intravenous injections of 200 ng of pertussis toxin on day 2.
With reference first to FIGS. 1-3, beginning on the day of immunization for acute monophasic EAE, nine groups of mice (each group containing 5 or 6 individuals) were treated with either ethonafide (AMP; a compound of Formula (II) wherein the dibenzisoquinoline ring structure is substituted at position 6 with —OCH2CH3) or mitoxantrone at a dose of 0.125 mg/kg, 0.25 mg/kg, or 0.5 mg/kg daily for seven days, or were left untreated to be used as a control at each respective dose level. Each drug was administered intraperitoneally in phosphate buffered saline (untreated mice received i.p. administrations of the PBS vehicle). The mice were observed daily for clinical signs of disease, and were scored (by multiple investigators) on an arbitrary scale from 0 to 5 in increments of 0.5 according to the following parameters: 0—no clinical signs of disease; 1—flaccid tail; 2—hind limb weakness or abnormal gait; 3—complete hind paralysis; 4—complete hind paralysis with forelimb weakness or paralysis; and 5-moribund or deceased. The incidence of disease in the immunized mice, the day of disease onset, the maximum clinical score, and the mean clinical score over a 30 day observation period were determined, and the results are shown in Table 2.

acute monophasic EAE [2] = test: Acute monophasic EAE, drug administration beginning on day 11 post immunization; assay type: in vivo, C57/BL6 mice; conditions: for Mean Clinical Score / Day of Onset / Incidence: 32 day observation; for Mean Clinical Score: mice that had evidence of disease; for Max. Clinical Score: scale 0 to 5
Text: as §1, §2
With reference now to FIG. 4, five groups of mice (each group containing 5 or 6 individuals), immunized for acute monophasic EAE as described hereinbefore, were treated with either ethonafide (AMP) or mitoxantrone at a dose of 0.5 mg/kg or 1.0 mg/kg beginning on day 11 following immunization, for seven days, or were left untreated to be used as a control. Each drug was administered intraperitoneally in phosphate buffered saline (untreated mice received i.p. administrations of the PBS vehicle). The mice were observed daily for clinical signs of disease and were scored as indicated hereinbefore on a clinical scale from 0 to 5. The incidence of disease in the immunized mice, the day of disease onset, the maximum clinical score, and the mean clinical score over a 32 day observation period were determined, and the results are shown in Table 3.

L1210 sensitive = conditions: murine leukemia L1210 sensitive to standard cytotoxic agents; MTT, continuous exposure; cited from earlier work
L1210 resistant = conditions: murine leukemia L1210 resistant, P-glycoprotein producing; MTT, continuous exposure; cited from earlier work
neonatal rat myocytes = conditions: 1 hour drug concentration that reduces ATP/protein ratio to 50% of untreated control myocytes; read-out: IC50 Cardiotox; cited from earlier work
[3] = 0.125 mg/kg i.p. daily for seven days from day of immunization
[4] = 0.125 mg/kg i.p. daily for seven days from day of immunization, mice that had evidence of disease
[5] = 0.25 mg/kg i.p. daily for seven days from day of immunization
[6] = 0.25 mg/kg i.p. daily for seven days from day of immunization, mice that had evidence of disease
[7] = 0.5 mg/kg i.p. daily for seven days from day of immunization
[8] = 0.5 mg/kg i.p. for seven days beginning on day 11
[9] = 0.5 mg/kg i.p. for seven days beginning on day 11 following immunization
[10] = 1.0 mg/kg i.p. for seven days beginning on day 11
[11] = 1.0 mg/kg i.p. for seven days beginning on day 11 following immunization

Structure (SMILES)	Day of Onset (acute monophasic EAE [1]; [3])	Incidence (acute monophasic EAE [1]; [3]) [%]	Mean Clinical Score (acute monophasic EAE [1]; [4])	Max. Clinical Score (acute monophasic EAE [1]; [3])	Incidence (acute monophasic EAE [1]; [5]) [%]	Mean Clinical Score (acute monophasic EAE [1]; [6])	Incidence (acute monophasic EAE [1]; [7]) [%]	Mean Clinical Score (acute monophasic EAE [1]; [7])	Max. Clinical Score (acute monophasic EAE [1]; [7])	Mean Clinical Score (acute monophasic EAE [2]; [8])	Day of Onset (acute monophasic EAE [2]; [9])	Incidence (acute monophasic EAE [2]; [9]) [%]	Max. Clinical Score (acute monophasic EAE [2]; [9])	Mean Clinical Score (acute monophasic EAE [2]; [10])	Day of Onset (acute monophasic EAE [2]; [11])	Incidence (acute monophasic EAE [2]; [11]) [%]	Max. Clinical Score (acute monophasic EAE [2]; [11])	IC50 (L1210 sensitive) [nM]	IC50 (L1210 resistant) [nM]	IC50 (neonatal rat myocytes) [nM]	other results
CCOc1ccc2c3c(c4ccccc4cc13)C(=O)N(CCN(C)C)C2=O [*6-OC2H5]	11.5 ± 0.88	100	1.98 ± 0.48	3.5 ± 0.22	100	0.88 ± 0.38	0	0	0	1.86 ± 0.35	11.8 ± 0.72	100	3.9 ± 0.26	1.17 ± 0.24	12.3 ± 0.55	60	3.7 ± 0.22	8	7	1780	Day of Onset (acute monophasic EAE [1]; [5]): 17.8 ± 3.4; Max. Clinical Score (acute monophasic EAE [1]; [5]): 1.8 ± 1.16; effect in delaying or preventing the onset of clinically symptomatic progressive disease and the disability caused thereby (acute monophasic EAE [1]; 0.125, 0.25, 0.5 mg/kg from day of immunization, FIGS. 1-3, Table 2): dose dependent effect; effect in the treatment of clinical symptoms induced in the EAE mouse model (acute monophasic EAE [2]; 0.5 and 1.0 mg/kg beginning on day 11, FIG. 4, Table 3): dose dependent effect
O=C1c2c(O)ccc(O)c2C(=O)c2c(NCCNCCO)ccc(NCCNCCO)c21 [Mitoxantrone, reference compound]	12.5 ± 0.67	100	1.63 ± 0.59	3.1 ± 0.33	40	0.21 ± 0.07	0	0	0	0.59 ± 1.67	12.2 ± 0.68	100	2.4 ± 0.36	0.51 ± 0.21	13.3 ± 0.55	60	2.8 ± 0.36	10	39	7740	–
